Values of other authors, collected in patent publication US10183097B2, “Engineered cardiac derived compositions and methods of use” (THE JOHNS HOPKINS UNIVERSITY, priority 2013, dated 2019).

Test system: NRVM
Conditions: inventors' previous NRVM study with myofibroblasts; agent added separately

Compound	electrophysiological suppression of conduction	severity of arrhythmia
[H]/N=C(/N)N[C@H]1[C@H](O)[C@@H](O)[C@H](O[C@@H]2O[C@@H](C)[C@](O)(C=O)[C@H]2O[C@@H]2O[C@@H](CO)[C@H](O)[C@@H](O)[C@@H]2NC)[C@@H](N/C(N)=N\[H])[C@@H]1O [streptomycin]	relieved the electrophysiological suppression of conduction	reduced the severity of arrhythmia
[Gd] [gadolinium]	relieved the electrophysiological suppression of conduction	reduced the severity of arrhythmia
Cc1ccc2c(c1)C(=O)C1(O)CCN(c3ccccc3)C1=N2 (stereo not drawn) [blebbistatin]	relieved the electrophysiological suppression of conduction	reduced the severity of arrhythmia
